Each structure is given as a SMILES string. pEC50: −log10 of the molar value.

The text below walks through data of patent US8173645B2 (Takeda San Diego, Inc., priority 2007, dated 2012).

This assay addresses T1, glucokinase (GK), residues 12-465 of the human enzyme (Homo sapiens, UniProt P35557).
T1 construct: I.D. No. 1 corresponds to residues 12-465 of glucokinase; made in house; host or cells: E. coli DH10b-Tlr
T1 sequence (P35557 with tags, fused parts or gaps isoform P35557-2): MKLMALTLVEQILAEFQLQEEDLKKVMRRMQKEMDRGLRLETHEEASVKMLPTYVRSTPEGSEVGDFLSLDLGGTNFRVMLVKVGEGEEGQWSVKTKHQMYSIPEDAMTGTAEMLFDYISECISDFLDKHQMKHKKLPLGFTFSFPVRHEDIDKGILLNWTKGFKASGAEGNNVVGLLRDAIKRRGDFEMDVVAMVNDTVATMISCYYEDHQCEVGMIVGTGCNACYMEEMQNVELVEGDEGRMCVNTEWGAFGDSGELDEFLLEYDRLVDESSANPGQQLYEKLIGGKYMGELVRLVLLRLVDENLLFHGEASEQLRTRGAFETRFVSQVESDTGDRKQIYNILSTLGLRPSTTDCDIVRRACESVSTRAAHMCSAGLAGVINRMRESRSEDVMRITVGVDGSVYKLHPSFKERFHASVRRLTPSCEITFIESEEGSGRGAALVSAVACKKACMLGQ
Put plainly: Enzymatic glucokinase activity assay (KinaseGlo luminescence, ATP consumption). The format is biochemical. The following applies: 5 μM ATP, 5 mM Glucose; for pEC50: GK activation, Kact = concentration giving 50% of the maximal increase in GK activity, read-out: pKact; for Emax: read-out: % ACTmax. From the text:
The activity of compounds as glucokinase activators may be assayed in vitro, in vivo or in a cell line. Provided below is an enzymatic glucokinase activity assay.
Purified glucokinase may be obtained as follows. DNA encoding residues 12-465 of the full-length sequence of the human enzyme may be amplified by PCR and cloned into the HindIII and EcoRI sites of pFLAG-CTC (Sigma). SEQ. I.D. No. 1 corresponds to residues 12-465 of glucokinase.
The expression of recombinant glucokinase protein may be carried out by transformation and growth of DH10b-Tlr E. coli cells incorporating the (pFLAG-CTC) plasmid in LB media. Protein expression can be induced in this system by the addition of IPTG to the culture medium.
Recombinant protein may be isolated from cellular extracts by passage over Sepharose Q Fast Flow resin (Pharmacia). This partially purified GK extract may then be further purified by a second passage over Poros HQ 10 (Applied Biosystems). The purity of GK may be determined on denaturing SDS-PAGE gel. Purified GK may then be concentrated to a final concentration of 20.0 mg/ml. After flash freezing in liquid nitrogen, the proteins can be stored at −78° C. in a buffer containing 25 mM TRIS-HCl pH 7.6, 50 mM NaCl, and 0.5 mM TCEP.
The activation properties of compounds for GK may be determined using a black 384-well-plate format under the following reaction conditions: 25 mM Hepes pH 7.2, 25 mM NaCl, 10 mM MgCl2, 0.01% Brij35, 1 mM DTT, 5 μM ATP, 5 mM Glucose 2% DMSO. The amount of ATP consumed may be determined quantitatively by addition of equal volume of luciferase reagent (luciferase+beetle luciferin—KinaseGlo Luminescent Kinase Assay kit from Promega). The luminescence intensity may be measured by using the Analyst HT from LJL Biosystems.
The assay reaction may be initiated as follows: 4 μl of substrate mixture (12.5 μM ATP and 12.5 mM Glucose) was added to each well of the plate, followed by the addition of 2 μl of activator (2 fold serial dilutions for 11 data points for each activator) containing 10% DMSO. 4 μL of 1.25 nM GK solution may be added to initiate the reaction. The reaction mixture may then be incubated at room temperature for 60 min, and quenched and developed by addition of 10 μL of luciferase reagent. Luminescence intensities of the resulting reaction mixtures may be measured after a 10 min incubation at room temperature. The luminescence intensity may be measured by using the Analyst HT from LJL Biosystems.
pKact and % ACTmax values may be calculated by non-linear curve fitting of the compound concentrations and luminescence intensities to a standard inhibition/activation equation.

Where [1] appears, read: calculated maximal gain in GK enzyme activity at a saturating concentration of the compound.

In the case of `CS(=O)(=O)N1CCN([C@@H](CC2CCCCC2)C(=O)Nc2nccs2)C(=O)C1` [Example 1, (S)-3-cyclohexyl-2-(4-(methylsulfonyl)-2-oxopiperazin-1-yl)-N-(thiazol-2-yl)propanamide], the pEC50 was 5.60 to 5.80. Further, the Emax under setting [1] is 74.1 to 97%.

`O=C(Nc1nccs1)[C@H](CC1CCCCC1)N1CCN(S(=O)(=O)C2CC2)CC1=O` [Example 2, (S)-3-cyclohexyl-2-(4-(cyclopropylsulfonyl)-2-oxopiperazin-1-yl)-N-(thiazol-2-yl)propanamide]: the pEC50 is at least 6.20. Also, under setting [1], the “% ACTmax” value is on record as 107.5-119.0%.

For the compound `COc1cccc(C[C@@H](C(=O)Nc2nccs2)N2CCN(S(=O)(=O)C3CC3)CC2=O)c1` [Example 4, (S)-2-(4-(cyclopropylsulfonyl)-2-oxopiperazin-1-yl)-3-(3-methoxyphenyl)-N-(thiazol-2-yl)propanamide], the pEC50 is 5.60 to 5.80. In addition, the Emax under setting [1] was 74.1 to 97%.

For the compound `CC(C)C[C@@H](C(=O)Nc1ncc(Cl)s1)N1CCN(S(=O)(=O)C2CC2)CC1=O` [Example 10, (S)—N-(5-chlorothiazol-2-yl)-2-(4-(cyclopropylsulfonyl)-2-oxopiperazin-1-yl)-4-methylpentanamide], the pEC50 is 5.90 to 6.10. For the same compound, the Emax under setting [1] is at least 119%.

Take `CC(C)C[C@@H](C(=O)Nc1ncc(F)s1)N1CCN(S(=O)(=O)C2CC2)CC1=O` [Example 11, (S)-2-(4-(cyclopropylsulfonyl)-2-oxopiperazin-1-yl)-N-(5-fluorothiazol-2-yl)-4-methylpentanamide]: the pEC50 was 5.90 to 6.10. Also, the Emax under setting [1] is at least 119%.

`O=C(Nc1ncc(Cl)s1)C(CC1CCCC1)N1CCN(S(=O)(=O)C2CC2)CC1=O` (stereo not drawn) [Example 16, N-(5-chlorothiazol-2-yl)-3-cyclopentyl-2-(4-(cyclopropylsulfonyl)-2-oxopiperazin-1-yl)propanamide]: the pEC50 was at least 6.20. Under setting [1], the Emax is at least 119%.

`CC(=O)N1CCC(CC(C(=O)Nc2nccs2)N2CCN(S(=O)(=O)C3CC3)CC2=O)C1` (stereo not drawn) [Example 20, 3-(1-acetylpyrrolidin-3-yl)-2-(4-(cyclopropylsulfonyl)-2-oxopiperazin-1-yl)-N-(thiazol-2-yl)propanamide]: the pEC50 is 5.90 to 6.10. Further, the Emax under setting [1] was 108 to 119%.

As for `O=C(Nc1ncc(F)s1)[C@H](CC1CCOCC1)N1CCN(S(=O)(=O)C2CC2)CC1=O` [Example 21, (S)-2-(4-(cyclopropylsulfonyl)-2-oxopiperazin-1-yl)-N-(5-fluorothiazol-2-yl)-3-(tetrahydro-2H-pyran-4-yl)propanamide], the pEC50 is 5.60 to 5.80. Further, the Emax under setting [1] was 108 to 119%.

Regarding `O=C(Nc1ncc(Cl)s1)C(CC1CCOCC1)N1CCN(S(=O)(=O)C2CC2)CC1=O` (stereo not drawn) [Example 23, N-(5-chlorothiazol-2-yl)-2-(4-(cyclopropylsulfonyl)-2-oxopiperazin-1-yl)-3-(tetrahydro-2H-pyran-4-yl)propanamide], the pEC50 was 5.60 to 5.80. The Emax under setting [1] was at least 119%.

In the case of `O=C(Nc1ncc(Cl)s1)[C@H](CC1CCOCC1)N1CCN(S(=O)(=O)C2CC2)CC1=O` [Example 24, (S)-N-(5-chlorothiazol-2-yl)-2-(4-(cyclopropylsulfonyl)-2-oxopiperazin-1-yl)-3-(tetrahydro-2H-pyran-4-yl)propanamide], the pEC50 was 5.90 to 6.10. Also, the Emax under setting [1] is at least 119%.

As to `O=C(Nc1ncc(Cl)s1)[C@@H](CC1CCOCC1)N1CCN(S(=O)(=O)C2CC2)CC1=O` [Example 25, (R)-N-(5-chlorothiazol-2-yl)-2-(4-(cyclopropylsulfonyl)-2-oxopiperazin-1-yl)-3-(tetrahydro-2H-pyran-4-yl)propanamide], the pEC50 is at most 5.50. Also, the Emax under setting [1] is at most 74%.

Take `COc1ccc2nc(NC(=O)C(CC3CCOCC3)N3CCN(S(=O)(=O)C4CC4)CC3=O)sc2n1` (stereo not drawn) [Example 26, 2-(4-(cyclopropylsulfonyl)-2-oxopiperazin-1-yl)-N-(5-methoxythiazolo[5,4-b]pyridin-2-yl)-3-(tetrahydro-2H-pyran-4-yl)propanamide]: the pEC50 is at most 5.50. For the same compound, under setting [1], the Emax was 74.1 to 97%.

In the case of `O=C(Nc1ncc(Cl)s1)[C@H](CC1CCOCC1)N1CCN(S(=O)(=O)C2CCCC2)CC1=O` [Example 28, (S)-N-(5-chlorothiazol-2-yl)-2-(4-(cyclopentylsulfonyl)-2-oxopiperazin-1-yl)-3-(tetrahydro-2H-pyran-4-yl)propanamide], the pEC50 is at least 6.20. Also, under setting [1], the Emax is at least 119%.

For the compound `COc1ccc2nc(NC(=O)C(CC3CCOCC3)N3CCN(S(=O)(=O)C4CCCC4)CC3=O)sc2n1` (stereo not drawn) [Example 29, 2-(4-(cyclopentylsulfonyl)-2-oxopiperazin-1-yl)-N-(5-methoxythiazolo[5,4-b]pyridin-2-yl)-3-(tetrahydro-2H-pyran-4-yl)propanamide], the pEC50 is 5.90 to 6.10. Besides, the Emax under setting [1] was 108 to 119%.

With `O=C(Nc1nccs1)[C@H](CC1CCCCC1)N1CCN2[C@@H](CCS2(=O)=O)C1=O` [Example 31, (S)-3-Cyclohexyl-N-thiazol-2-yl-2-((S)-1,1,4-trioxo-hexahydro-1λ*6*-thia-5,7a-diaza-inden-5-yl)-propionamide], the pEC50 was at most 5.50. Moreover, the Emax under setting [1] is 74.1 to 97%.

In the case of `O=C(Nc1ncc(Cl)s1)C(CC1CCOCC1)N1CCN(S(=O)(=O)c2ccc(F)cc2)CC1=O` (stereo not drawn) [Example 33, N-(5-chlorothiazol-2-yl)-2-(4-(4-fluorophenylsulfonyl)-2-oxopiperazin-1-yl)-3-(tetrahydro-2H-pyran-4-yl)propanamide], the pEC50 was 5.90 to 6.10. In addition, the Emax under setting [1] is at least 119%.

Turning to `O=C(Nc1ncc(Cl)s1)[C@H](CC1CCOCC1)N1CCN(S(=O)(=O)c2ccc(F)cc2)CC1=O` [Example 34, (S)-N-(5-chlorothiazol-2-yl)-2-(4-(4-fluorophenylsulfonyl)-2-oxopiperazin-1-yl)-3-(tetrahydro-2H-pyran-4-yl)propanamide], the pEC50 was 5.60 to 5.80. Further, the Emax under setting [1] is 97.1 to 107%.

For the compound `O=C(Nc1ncc(Cl)s1)C(CC1CCOCC1)N1CCN(S(=O)(=O)c2cccs2)CC1=O` (stereo not drawn) [Example 36, N-(5-chlorothiazol-2-yl)-2-(2-oxo-4-(thiophen-2-ylsulfonyl)piperazin-1-yl)-3-(tetrahydro-2H-pyran-4-yl)propanamide], the pEC50 was at least 6.20. In addition, under setting [1], the Emax is 108 to 119%.

Turning to `O=C(Nc1ncc(Cl)s1)[C@H](CC1CCOCC1)N1CCN(S(=O)(=O)c2cccs2)CC1=O` [Example 37, (S)-N-(5-chlorothiazol-2-yl)-2-(2-oxo-4-(thiophen-2-ylsulfonyl)piperazin-1-yl)-3-(tetrahydro-2H-pyran-4-yl)propanamide], the pEC50 is at least 6.20. For the same compound, the Emax under setting [1] is 74.1 to 97%.

As to `O=C(Nc1nccs1)[C@H](CC1CCCCC1)N1CCN(S(=O)(=O)c2ccc3ccccc3c2)CC1=O` [Example 39, (S)-3-cyclohexyl-2-(4-(naphthalen-2-ylsulfonyl)-2-oxopiperazin-1-yl)-N-(thiazol-2-yl)propanamide], the pEC50 was 5.90 to 6.10. Also, the Emax under setting [1] was at most 74%.

In the case of `O=C(Nc1nccs1)[C@H](CC1CCCCC1)N1CCN(S(=O)(=O)c2cccc3cccnc23)CC1=O` [Example 40, (S)-3-cyclohexyl-2-(2-oxo-4-(quinolin-8-ylsulfonyl)piperazin-1-yl)-N-(thiazol-2-yl)propanamide], the pEC50 was 5.90 to 6.10. Also, under setting [1], the Emax was 108 to 119%.
